Source: article PMC7471006, “A Simplified Quantitative Real-Time PCR Assay for Monitoring SARS-CoV-2 Growth in Cell Culture” (mSphere, 2020)
Where two headings read alike, the source gives them in different places.

What was measured:
[1] = system: SARS-CoV-2; assay: SYBR green-based qRT-PCR of SARS-CoV-2 RNA in supernatants of infected Vero E6 cells (compound screen); type: cell-based; conditions: for Effect on SARS-CoV-2 viral RNA in supernatants / SARS-CoV-2 replication: MOI 0.01, 24 hpi, result in words; for IC50: Severe acute respiratory syndrome coronavirus 2, Vero C1008, MOI 0.01, 24 hpi, read-out: IC50 (50% inhibitory concentration), SARS-CoV-2 viral RNA in supernatants
[2] = system: Vero E6 cells
[3] = system: Vero E6 cells; assay: RealTime-Glo MT cell viability assay (compound cytotoxicity); conditions: parallel plates, result in words

SMILES | Effect on SARS-CoV-2 viral RNA in supernatants / SARS-CoV-2 replication [1] | Compound cytotoxicity [2] | Compound cytotoxicity [3] | Potency on SARS-CoV-2 viral RNA in supernatants compared with 24 hpi ([1]; 48 hpi, data not shown) | IC50 [1]
Cc1nc2ccc(Br)cc2c(-c2ccc(Cl)cc2)c1C(OC(C)(C)C)C(=O)O (stereo not shown) [ALLINI-2] | modestly inhibited | without apparent cytotoxicity |  |  | 
CCN(c1nc(N)c(C(=O)NC(=N)N)nc1Cl)C(C)C [EIPA, ethylisopropylamiloride] | substantially decreased viral RNA in supernatants at subcytotoxic levels |  |  |  | 
CC(C)CN(C[C@@H](O)[C@H](Cc1ccccc1)NC(=O)O[C@H]1CCOC1)S(=O)(=O)c1ccc(N)cc1 [amprenavir] | modestly inhibited |  | without apparent cytotoxicity |  | 
Cc1cccc(/C=N/Nc2cc(N3CCOCC3)nc(OCCc3ccccn3)n2)c1 [apilimod] | substantially decreased | minimal cytotoxicity |  | less potent | 12 nM
Cc1ccnc2c1NC(=O)c1cccnc1N2C1CC1 [nevirapine] | modestly inhibited |  | without apparent cytotoxicity |  | 
CCC(CC)COC(=O)[C@H](C)N[P@](=O)(OC[C@H]1O[C@@](C#N)(c2ccc3c(N)ncnn23)[C@H](O)[C@@H]1O)Oc1ccccc1 [remdesivir] | substantially decreased |  |  |  | 2.8 µg/mL
